Assay results taken from US20190167569A1, “ENHANCED HERBAL EXTRACTION AND TRANSDERMAL DELIVERY” (priority 2016, published 2019).
Where two headings read alike, the source gives them in different places. Values belong to the compound of their own block, whether it stands above or below them.

Assays:
[1] = Diffusion of carvacrol in thyme essential oil through Franz diffusion cells that mimic human skin (UV-VIS, 272 nm); type: in vitro ADME
Method: The diffusion rates of carvacrol in thyme (Tymus vulgaris) essential oil through diffusion cells that mimic human skin were calculated and analyzed using UV-VIS spectrophotometry to measure carvacrol content. Franz diffusion cells from Permegeaer, USA, with 47 mm, 200 nm inert polycarbonate membrane filters, were used with 5 ml extract solution samples. […] The amount of carvacrol that passed through the filter was determined by absorbance graphics on a UV spectrophotometer (Agilent 8453). A standard calibration curve was determined for carvacrol and the absorbances were measured at 272 nm to determine the % concentrations released.
The diffusion rates of carvacrol in thyme (Tymus vulgaris) essential oil (0.05 ml of thyme essential oil) dispersed in 1 ml of soapwort extract solution through diffusion cells that mimic human skin were calculated and analyzed using UV-VIS spectrophotometry to measure carvacrol content. Franz diffusion cells from Permegear, USA, with 47 mm, 200 nm inert polycarbonate membrane filters, were used with 5 ml extract solution samples. The speed of diffusion of different thyme extracts were calculated at 1, 3, 5, 7, 10, 20, 40 minutes (and up to 1 day of duration) at a rotational speed of 50 rpm to mimic a dermal application. The amount of carvacrol that passed through the filter was determined by absorbance graphics on a UV spectrophotometer (Agilent 8453). A standard calibration curve was determined for carvacrol and the absorbances were measured at 272 nm to determine the % concentrations released.
The diffusion rates of carvacrol in thyme (Tymus vulgaris) essential oil (0.05 ml of thyme essential oil dispersed in 1 ml of licorice extract solution) through diffusion cells that mimic human skin were calculated and analyzed using UV-VIS spectrophotometry to measure carvacrol content. Franz diffusion cells from Permegeaer, USA, with 47 mm, 200 nm inert polycarbonate membrane filters, were used with 5 ml extract solution samples. The speed of diffusion of different thyme extracts were calculated at 1, 2, 3, 4, 7, 10, 20, 30, 40 minutes (and up to 1 day of duration) at a rotational speed of 50 rpm to mimic a dermal application. The amount of carvacrol that passed through the filter was determined by absorbance graphics on a UV spectrophotometer (Agilent 8453). A standard calibration curve was determined for carvacrol and the absorbances were measured at 272 nm to determine the % concentrations released.

[2] = type: in vitro ADME
Method: (§1) The diffusion rates of different rosemary extract solutions through diffusion cells that mimic human skin were calculated and analyzed using UV-VIS spectrophotometry to measure rosmarinic acid content. Franz diffusion cells from Permegear, USA, with 47 mm, 200 nm inert polycarbonate membrane filters, were used with 5 ml extract solution samples. The speed of diffusion of different rosemary extracts were calculated at 1, 2, 3, 4, 10, 20, 30, 60, 120, 360 minutes (and up to 1 day of duration) at a rotational speed of 50 rpm to mimic a dermal application. The amount of rosmarinic acid that passed through the filter was determined by absorbance graphics on a UV spectrophotometer (Agilent 8453). A standard calibration curve was determined for rosmarinic acid and the absorbances were measured at 323 nm to determine the % concentrations released.
For a reference or baseline sample, a decoction of rosemary in water alone was prepared at a 1:5 ratio.
A soapwort decoction (an extraction medium with a saponin content) was prepared in water at a 1:5 ratio. A consequent decoction of rosemary (i.e., a rosemary extract solution) was prepared in the mentioned soapwort decoction at a 1:5 ratio. […] Thus, the transdermal delivery of rosmarinic acid using the method of the present invention is much faster than classical water decoctions predominantly used in modern dermal or cosmetic formulations.
as §1, with “5, 40” for “4, 10, 20, 30, 60, 120, 360”
A soapwort decoction (an extraction medium with a saponin content) was prepared in water at a 1:5 ratio. A decoction of rosemary (i.e., a rosemary extract solution) was prepared in 5×distilled water. The mentioned soapwort decoction and the water decoction of the rosemary leaves were then mixed at a 1:1 ratio. The following diffusion values were measured for this mixture: 14% at minute 1, 49.4% at minute 3, and 100% at minute 5.
The diffusion rates of rosemarinic acid in rosemary essential oil through diffusion cells that mimic human skin were calculated and analyzed using UV-VIS spectrophotometry to measure rosmarinic acid content. Franz diffusion cells from Permegear, USA, with 47 mm, 200 nm inert polycarbonate membrane filters, were used with 5 ml extract solution samples. The speed of diffusion of different rosemary extracts were calculated at 1, 2, 3, 4, 7, 10, 20, 40 minutes (and up to 1 day of duration) at a rotational speed of 50 rpm to mimic a dermal application. The amount of rosmarinic acid that passed through the filter was determined by absorbance graphics on a UV spectrophotometer (Agilent 8453). A standard calibration curve was determined for rosmarinic acid and the absorbances were measured at 323 nm to determine the % concentrations released.

[3] = type: physicochemical
Method: 100% of the carvacrol present in soapwort extract solution was released at the end of 40 minutes whereas about 90% of carvacrol present in licorice extract solution at the end of 40 minutes. When the solubilities were compared, it was observed that 0.5% of thyme oil was clearly dissolved in soapwort water extract and maximum 2% of thyme oil could be homogenously dispersed in soapwort. The maximum amount of thyme oil dissolved in licorice was 0.5%. Absorbance results clearly indicate that soapwort water extract has higher potential to dissolve and diffuse carvacrol of Thyme essential oil than does licorice.

Compound: Cc1ccc(C(C)C)cc1O [carvacrol]
diffusion ([1]; 0.05 ml thyme essential oil in 1 ml licorice extract solution, after 24 hours): 100%
diffusion value ([1]; 0.05 ml thyme essential oil in 1 ml licorice extract solution, minute 1): 0%
diffusion value ([1]; 0.05 ml thyme essential oil in 1 ml licorice extract solution, minute 2): 3.98%
diffusion value ([1]; 0.05 ml thyme essential oil in 1 ml licorice extract solution, minute 3): 14.41%
diffusion value ([1]; 0.05 ml thyme essential oil in 1 ml licorice extract solution, minute 4): 32.98%
diffusion value ([1]; 0.05 ml thyme essential oil in 1 ml licorice extract solution, minute 7): 42.59%
diffusion value ([1]; 0.05 ml thyme essential oil in 1 ml licorice extract solution, minute 10): 56.35%
diffusion value ([1]; 0.05 ml thyme essential oil in 1 ml licorice extract solution, minute 20): 67.61%
diffusion value ([1]; 0.05 ml thyme essential oil in 1 ml licorice extract solution, minute 30): 77.73%
diffusion value ([1]; 0.05 ml thyme essential oil in 1 ml soapwort extract solution, minute 1): 8.20%
diffusion value ([1]; 0.05 ml thyme essential oil in 1 ml soapwort extract solution, minute 3): 26.43%
diffusion value ([1]; 0.05 ml thyme essential oil in 1 ml soapwort extract solution, minute 5): 44.75%
diffusion value ([1]; 0.05 ml thyme essential oil in 1 ml soapwort extract solution, minute 7): 66.29%
diffusion value ([1]; 0.05 ml thyme essential oil in 1 ml soapwort extract solution, minute 10): 77.15%
diffusion value ([1]; 0.05 ml thyme essential oil in 1 ml soapwort extract solution, minute 20): 91.39%
diffusion value ([1]; 0.05 ml thyme essential oil in 1 ml soapwort extract solution, minute 40): 100%
transdermal delivery (in words) ([1]; thyme essential oil alone): negligible
carvacrol released ([1]; thyme essential oil alone, end of 40 minutes): 0%
absorbance values ([1]; thyme essential oil alone, end of 48 hours): minimal

absorbance values [2]: minimal
fraction of the control sample diffusion time [2]: 1/30
penetration rate relative to control sample (only water decoction of rosemary) [2]: approximately 30 ×
transdermal delivery (in words) [2]: negligible
rosemarinic acid released ([2]; 40 min): 0%
rosmarinic acid content passed through the membrane ([2]; 150 min): 100%
Compound: O=C(/C=C/c1ccc(O)c(O)c1)O[C@H](Cc1ccc(O)c(O)c1)C(=O)O [Rosmarinic Acid, rosmarinic acid]

maximum amount homogenously dispersed in soapwort [3]: 2%
Compound: thyme oil
